Test results published in article PMC4322620 (Frontiers in Pharmacology, 2015).

Assays:
[1] = test system: thermal pain; settings: mouse, in vivo, ip, 4 mg/kg
[2] = test system: acute thermal pain; settings: mouse, in vivo, ip, 4 mg/kg

CC12CC3CC(C)(C1)CC(N)(C3)C2 [Memantine]
Hot plate (latency to hindlimb response) [1]: 7.9 ± 0.49 s
Tail flick latency [2]: 4.836 ± 0.264 s
